Reference: patent US9051310B2, “Nicotinamide derivative or salt thereof” (FUJIFILM Corporation, priority 2011, dated 2015)

What follows are compounds tested against T1, glutathione S-transferase (GST)-linked full-length human Syk protein (Homo sapiens, UniProt P43405) (assay: Syk enzyme assay). Settings: 0.83 nM Syk, time-resolved fluorescence; read-out: IC50 of Syk-inhibitory activity.
T1 construct: glutathione S-transferase (GST)-linked full-length human Syk protein; purchased Carna Biosciences; host or cells: Baculovirus expression system
Format: biochemical
Description: A glutathione S-transferase (GST)-linked full-length human Syk protein (Carna Biosciences), which had been generated using a Baculovirus expression system, was used in the Syk enzyme assay.
7.5 μl of a reaction solution (0.83 nM Syk, 20 mM HEPES, 10 mM MgCl2, 50 mM NaCl, 2 mM DTT, 0.05% BSA, pH 7.0) containing a Syk protein and a predetermined concentration of a test compound was shaken for 2 minutes, and it was then left at rest at room temperature for 13 minutes. Thereafter, 0.5 μM substrate peptide (Biotin-[…]-NH2) and 5 μL of a solution containing 67.5 μM ATP were added to the reaction solution, and the obtained mixture was then shaken for 2 minutes. The reaction solution was further left at rest at room temperature for 40 minutes, so as to carry out an enzyme reaction.
Thereafter, 50 μL of a reaction termination solution [60 nM APC-SA, 0.45 μg/mL Eu-PT66, 30 mM HEPES (pH 7.0), 150 mM KF, 30 mM EDTA, 0.15% BSA, 0.075% Tween20] containing Allophycocyanin-Streptavidin (APC-SA; PerkinElmer) and an Eu-W1024-labeled anti-phosphotyrosine PT66 antibody (Eu-PT66; PerkinElmer) was added to the reaction solution to terminate the enzyme reaction. At the same time, the reaction solution was left at rest at room temperature for 1 hour, so as to carry out an antigen-antibody reaction. Thereafter, using EnVision (PerkinElmer), the level of time-resolved fluorescence was measured at 615 nm and 665 nm, so that the phosphorylation of the substrate peptide was measured.
The following are used in Table 5 to denote standards for evaluating IC50 of Syk-inhibitory activity. • A: Up to 10 nM • B: 10 to 50 nM • C: 50 to 100 nM

Row | IC50 [nM] | SMILES
1 | < 10 | COCCn1ncc2cc(Nc3nc(N[C@H](c4ccc(OC)cc4)[C@H](C)N)c(F)cc3C(N)=O)ccc21 [Example 2-455, 6-(((1R,2S)-2-amino-1-(4-methoxyphenyl)propyl)amino)-5-fluoro-2-((1-(2-methoxyethyl)-1H-indazol-5-yl)amino)nicotinamide]
2 | < 10 | COCCn1ncc2c(Nc3nc(N[C@@H]4CCCC[C@@H]4N)c(F)cc3C(N)=O)cncc21 [Example 2-384, 6-(((1R,2S)-2-aminocyclohexyl)amino)-5-fluoro-2-((1-(2-methoxyethyl)-1H-pyrazolo[3,4-c]pyridin-4-yl)amino)nicotinamide]
3 | < 10 | COCCn1ncc2c(Nc3nc(N[C@H](CC(C)C)[C@H](C)N)c(F)cc3C(N)=O)cccc21 [Example 2-308, 6-(((2S,3R)-2-amino-5-methylhexan-3-yl)amino)-5-fluoro-2-((1-(2-methoxyethyl)-1H-indazol-4-yl)amino)nicotinamide]
4 | 10 to 50 | CC[C@H](N)[C@H](Nc1nc(Nc2cc(OC)cc(OC)c2)c(C(N)=O)cc1F)C1CC1 [Example 2-361, 6-(((1R,2S)-2-amino-1-cyclopropylbutyl)amino)-2-((3,5-dimethoxyphenyl)amino)-5-fluoronicotinamide]
5 | < 10 | CCn1ncc2c(Nc3nc(N[C@H](c4ccc(F)c(F)c4)[C@H](C)N)c(F)cc3C(N)=O)cccc21 [Example 2-555, 6-(((1R,2S)-2-amino-1-(3,4-difluorophenyl)propyl)amino)-2-((1-ethyl-1H-indazol-4-yl)amino)-5-fluoronicotinamide]
6 | 50 to 100 | CC[C@@H](Nc1nc(Nc2cnc(N3CCOCC3)c(F)c2)c(C(N)=O)cc1F)[C@H](C)N [Example 2-259, 6-(((2S,3R)-2-aminopentan-3-yl)amino)-5-fluoro-2-((5-fluoro-6-morpholinopyridin-3-yl)amino)nicotinamide]
7 | 10 to 50 | COCCNc1nn(CCOC)c2ccc(Nc3nc(N[C@H](C4CC4)[C@H](C)N)c(F)cc3C(N)=O)cc12 [Example 2-537, 6-(((1R,2S)-2-amino-1-cyclopropylpropyl)amino)-5-fluoro-2-((1-(2-methoxyethyl)-3-((2-methoxyethyl)amino)-1H-indazol-5-yl)amino)nicotinamide]
8 | 10 to 50 | CC[C@@H](Nc1nc(Nc2ccnc(OCCOC)c2)c(C(N)=O)cc1F)[C@H](C)N [Example 2-34, 6-(((2S,3R)-2-aminopentan-3-yl)amino)-5-fluoro-2-((2-(2-methoxyethoxy)pyridin-4-yl)amino)nicotinamide]
9 | 50 to 100 | COc1ccc([C@@H](Nc2nc(Nc3cnc(OC)c(-n4ccnn4)c3)c(C(N)=O)cc2F)[C@H](C)N)cc1 [Example 2-339, 6-(((1R,2S)-2-amino-1-(4-methoxyphenyl)propyl)amino)-5-fluoro-2-((6-methoxy-5-(1H-1,2,3-triazol-1-yl)pyridin-3-yl)amino)nicotinamide]
10 | 10 to 50 | COc1cc(Nc2nc(N[C@H](CCSC)[C@H](C)N)c(F)cc2C(N)=O)cc(OC)c1 [Example 2-345, 6-(((3R,4S)-4-amino-1-(methylthio)pentan-3-yl)amino)-2-((3,5-dimethoxyphenyl)amino)-5-fluoronicotinamide]
11 | 10 to 50 | COc1ccc([C@@H](Nc2nc(Nc3cc(OC)nc(OC)c3)c(C(N)=O)cc2F)[C@H](C)N)cc1 [Example 2-357, 6-(((1R,2S)-2-amino-1-(4-methoxyphenyl)propyl)amino)-2-((2,6-dimethoxypyridin-4-yl)amino)-5-fluoronicotinamide]
12 | 10 to 50 | COc1ncc(Nc2nc(N[C@H](CC(C)C)[C@H](C)N)c(F)cc2C(N)=O)cc1-n1nccn1 [Example 2-112, 6-(((2S,3R)-2-amino-5-methylhexan-3-yl)amino)-5-fluoro-2-((6-methoxy-5-(2H-1,2,3-triazol-2-yl)pyridin-3-yl)amino)nicotinamide]
13 | 10 to 50 | Cc1ncc(Nc2nc(N[C@H](Cc3ccccc3)[C@H](C)N)c(F)cc2C(N)=O)cc1F [Example 2-426, 6-(((2R,3S)-3-amino-1-phenylbutan-2-yl)amino)-5-fluoro-2-((5-fluoro-6-methylpyridin-3-yl)amino)nicotinamide]
14 | 10 to 50 | COCCOc1ncc(Nc2nc(N[C@H](CC(C)C)[C@H](C)N)c(F)cc2C(N)=O)cc1F [Example 2-119, 6-(((2S,3R)-2-amino-5-methylhexan-3-yl)amino)-5-fluoro-2-((5-fluoro-6-(2-methoxyethoxy)pyridin-3-yl)amino)nicotinamide]
15 | 10 to 50 | CCC[C@@H](Nc1nc(Nc2cnc(NC)c(F)c2)c(C(N)=O)cc1F)[C@H](C)N [Example 2-277, 6-(((2S,3R)-2-aminohexan-3-yl)amino)-5-fluoro-2-((5-fluoro-6-(methylamino)pyridin-3-yl)amino)nicotinamide]
16 | < 10 | CC[C@H](N)[C@@H](CC)Nc1nc(Nc2cc(F)c3c(c2)c(OC)nn3C)c(C(N)=O)cc1F [Example 2-160, 6-(((3R,4S)-4-aminohexan-3-yl)amino)-5-fluoro-2-((7-fluoro-3-methoxy-1-methyl-1H-indazol-5-yl)amino)nicotinamide]
17 | 10 to 50 | CC[C@@H](Nc1nc(Nc2cnc3c(c2)c(N(C)C)nn3C)c(C(N)=O)cc1F)[C@H](C)N [Example 2-288, 6-(((2S,3R)-2-aminopentan-3-yl)amino)-2-((3-(dimethylamino)-1-methyl-1H-pyrazolo[3,4-b]pyridin-5-yl)amino)-5-fluoronicotinamide]
18 | 10 to 50 | Cc1ncc(Nc2nc(NC3[C@@H](OCc4ccccc4)CCC[C@@H]3N)c(F)cc2C(N)=O)cc1-n1nccn1 (mixture of isomers) [Example 2-484, Mixture of 6-((2-amino-6-(benzyloxy)cyclohexyl)amino)-5-fluoro-2-((6-methyl-5-(2H-1,2,3-triazol-2-yl)pyridin-3-yl)amino)nicotinamide (1S,2S,6S),(1R,2R,6R)]
19 | 50 to 100 | CCOC[C@@H](Nc1nc(Nc2cnc(C)c(-n3nccn3)c2)c(C(N)=O)cc1F)[C@H](C)N [Example 2-183, 6-(((2S,3S)-3-amino-1-ethoxybutan-2-yl)amino)-5-fluoro-2-((6-methyl-5-(2H-1,2,3-triazol-2-yl)pyridin-3-yl)amino)nicotinamide]
20 | 10 to 50 | CC[C@@H](Nc1nc(Nc2cnc(OC)c(F)c2)c(C(N)=O)cc1F)[C@H](C)N [Example 2-64, 6-(((2S,3R)-2-aminopentan-3-yl)amino)-5-fluoro-2-((5-fluoro-6-methoxypyridin-3-yl)amino)nicotinamide]
21 | < 10 | COCCn1ncc2c(Nc3nc(N[C@H](C4CCC4)[C@H](C)N)c(F)cc3C(N)=O)cncc21 [Example 2-391, 6-(((1R,2S)-2-amino-1-cyclobutylpropyl)amino)-5-fluoro-2-((1-(2-methoxyethyl)-1H-pyrazolo[3,4-c]pyridin-4-yl)amino)nicotinamide]
22 | 10 to 50 | C[C@H](N)[C@H](Nc1nc(Nc2ccc3c(c2)c(N2CCCC2)nn3C)c(C(N)=O)cc1F)C1CC1 [Example 2-430, 6-(((1R,2S)-2-amino-1-cyclopropylpropyl)amino)-5-fluoro-2-((1-methyl-3-(pyrrolidin-1-yl)-1H-indazol-5-yl)amino)nicotinamide]
23 | < 10 | C[C@H](N)[C@H](Nc1nc(Nc2ccc3[nH]nc(N(C)C)c3c2)c(C(N)=O)cc1F)C1CC1 [Example 2-494, 6-(((1R,2S)-2-amino-1-cyclopropylpropyl)amino)-2-((3-(dimethylamino)-1H-indazol-5-yl)amino)-5-fluoronicotinamide]
24 | < 10 | CCn1ncc2c(Nc3nc(N[C@H](c4cccs4)[C@H](C)N)c(F)cc3C(N)=O)cccc21 [Example 2-509, 6-(((1S,2S)-2-amino-1-(thiophen-2-yl)propyl)amino)-2-((1-ethyl-1H-indazol-4-yl)amino)-5-fluoronicotinamide]
25 | 10 to 50 | CCC[C@@H](Nc1nc(Nc2cnc(OC)c(F)c2)c(C(N)=O)cc1F)[C@H](C)N [Example 2-65, 6-(((2S,3R)-2-aminohexan-3-yl)amino)-5-fluoro-2-((5-fluoro-6-methoxypyridin-3-yl)amino)nicotinamide]
26 | 10 to 50 | CCC[C@@H](Nc1nc(Nc2ccc3c(c2)c(N(C)CCOC)nn3C)c(C(N)=O)cc1F)[C@H](C)N [Example 2-459, 6-(((2S,3R)-2-aminohexan-3-yl)amino)-5-fluoro-2-((3-((2-methoxyethyl)(methyl)amino)-1-methyl-1H-indazol-5-yl)amino)nicotinamide]
27 | 10 to 50 | C[C@H](N)[C@H](Nc1nc(Nc2cnc3c(c2)c(N(C)C)nn3C)c(C(N)=O)cc1F)C1CC1 [Example 2-290, 6-(((1R,2S)-2-amino-1-cyclopropylpropyl)amino)-2-((3-(dimethylamino)-1-methyl-1H-pyrazolo[3,4-b]pyridin-5-yl)amino)-5-fluoronicotinamide]
